Results: patent publication US20110177105A1, “Novel Selective Inhibitors of Ubiquitin Specific Protease 7, the Pharmaceutical Compositions Thereof and Their Therapeutic Applications” (priority 2010, published 2011)

Target: T1, UCH-L3 (Homo sapiens, UniProt P15374)
T1 sequence (P15374 1-230): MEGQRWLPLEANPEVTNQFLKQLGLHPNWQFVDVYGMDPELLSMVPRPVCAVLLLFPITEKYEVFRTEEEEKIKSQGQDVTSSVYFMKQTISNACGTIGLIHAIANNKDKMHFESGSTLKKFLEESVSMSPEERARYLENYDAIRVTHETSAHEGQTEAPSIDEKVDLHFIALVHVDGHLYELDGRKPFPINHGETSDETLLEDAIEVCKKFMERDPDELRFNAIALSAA
Experiment: UCH-L3 activity assay (Ub-AMC)
Assay type: biochemical
Conditions: 300 nM Ub-AMC, 13 pM enzyme
Method: UCH-L3 was diluted in USP buffer (50 mM Tris HCl; 0.5 mM EDTA; 5 mM DTT; 0.01% Triton X-100; Bovine Serum Albumin 0.05 mg·ml^−1 pH 7.6). Compounds stocks (100 mM) were stored at −20° C. in DMSO. Compounds were tested at different concentrations: from 200 μM to 91 nM.
Reactions were performed as duplicates in Black 384 well plates (small volume microplates; Greiner; 10 μl final reaction volume). The substrate concentration for UCH-L3 was 300 nM Ub-AMC (Boston Biochem). The concentration of the enzyme (UCH-L3) in specificity assays was 13 pM. The concentrations were determined in order to perform specificity assays under initial velocities at fixed substrate concentration. Compounds were pre-incubated with enzymes for 30 minutes at 25° C. Reactions were initiated by addition of substrate to the plates containing the enzymes (+/−compounds) diluted in assay buffer. Reactions were incubated for 60 minutes at 37° C. Reactions were stopped by adding acetic acid (100 mM final). Readings were performed on a Pherastar Fluorescent Reader (BMG). λ Emission 380 nm; λ Excitation=460 nm. Data (mean values+/−standard deviation) were analyzed as % of control (no compound) and plotted as percentage versus the Log of the compound concentration using GraphPad (Prism). Data were fitted to a sigmoidal model (variable slope).

Question: Which IC50 does the source give for `CN1CCN(CCCNC(=O)c2ccc3c(Cl)c4c(nc3c2)CCCC4)CC1` [Example 15, 9-Chloro-5,6,7,8-tetrahydro-acridine-3-carboxylic acid [3-(4-methyl-piperazin-1-yl)-propyl]-amide] here?
Answer: > 200 µM

Question: Which IC50 does the source give for `CCN(CC)CCCNC(=O)c1ccc2c(Cl)c3c(nc2c1)CCCC3` [Example 10, 9-Chloro-5,6,7,8-tetrahydro-acridine-3-carboxylic acid (3-diethylamino-propyl)-amide] here?
Answer: > 200 µM

Question: Which IC50 does the source give for `CCCCN(CC)CCNC(=O)c1ccc2c(Cl)c3c(nc2c1)CCCC3` [Example 4, 9-Chloro-5,6,7,8-tetrahydro-acridine-3-carboxylic acid [2-(butyl-ethyl-amino)-ethyl]-amide] here?
Answer: > 200 µM

Question: For `CCN(CC)CCNC(=O)c1ccc2c(Cl)c3c(nc2c1)CCCC3` [Example 7, 9-Chloro-5,6,7,8-tetrahydro-acridine-3-carboxylic acid (2-diethylamino-ethyl)-amide], which IC50 is on record?
Answer: > 200 µM

Question: With `CN(C)CCNC(=O)c1ccc2c(Cl)c3c(nc2c1)CCCC3` [Example 11, 9-Chloro-5,6,7,8-tetrahydro-acridine-3-carboxylic acid (2-dimethylamino-ethyl)-amide] as the molecule, how does the IC50 read?
Answer: > 200 µM

Question: With `CCCN(CCC)CCCNC(=O)c1ccc2c(Cl)c3c(nc2c1)CCCC3` [Example 6, 9-Chloro-5,6,7,8-tetrahydro-acridine-3-carboxylic acid (3-dipropylamino-propyl)-amide] as the molecule, how does the IC50 read?
Answer: > 200 µM

Question: With `CCCN1CCN(CCCNC(=O)c2ccc3c(Cl)c4c(nc3c2)CCCC4)CC1` [Example 13, 9-Chloro-5,6,7,8-tetrahydro-acridine-3-carboxylic acid [3-(4-propyl-piperazin-1-yl)-propyl]-amide] as the molecule, how does the IC50 read?
Answer: > 200 µM

Question: How did the IC50 turn out when `O=C(c1ccc2c(Cl)c3c(nc2c1)CCCC3)N1CCC(N2CCCCC2)CC1` [Example 16, [1,4′]Bipiperidinyl-1′-yl-(9-chloro-5,6,7,8-tetrahydro-acridin-3-yl)-methanone] was run?
Answer: > 200 µM

Question: With `CN(CCCNC(=O)c1ccc2c(Cl)c3c(nc2c1)CCCC3)Cc1ccccc1` [Example 14, 9-Chloro-5,6,7,8-tetrahydro-acridine-3-carboxylic acid [3-(benzyl-methyl-amino)-propyl]-amide] as the molecule, how does the IC50 read?
Answer: > 200 µM

Question: `CCN1CCCC1CNC(=O)c1ccc2c(Cl)c3c(nc2c1)CCCC3` (stereo not shown) [Example 2, 9-Chloro-5,6,7,8-tetrahydro-acridine-3-carboxylic acid (1-ethyl-pyrrolidin-2-ylmethyl)-amide] was tested. Which IC50 did it give?
Answer: > 200 µM

Question: With `Cc1cccc(CN2CCC(CNC(=O)c3ccc4c(Cl)c5c(nc4c3)CCCC5)CC2)c1` [Example 1, 9-Chloro-5,6,7,8-tetrahydro-acridine-3-carboxylic acid [1-(3-methyl-benzyl)-piperidin-4-ylmethyl]-amide] as the molecule, how does the IC50 read?
Answer: > 200 µM

Question: `CCCN(CCC)CCNC(=O)c1ccc2c(Cl)c3c(nc2c1)CCCC3` [Example 3, 9-Chloro-5,6,7,8-tetrahydro-acridine-3-carboxylic acid (2-dipropylamino-ethyl)-amide] was tested. Which IC50 did it give?
Answer: > 200 µM

Question: Which IC50 does the source give for `O=C(c1ccc2c(Cl)c3c(nc2c1)CCCC3)N1CCCCCC1` [Example 12, Azepan-1-yl-(9-chloro-5,6,7,8-tetrahydro-acridin-3-yl)-methanone] here?
Answer: > 200 µM

Question: How did the IC50 turn out when `CC1CCCC(C)N1CCCNC(=O)c1ccc2c(Cl)c3c(nc2c1)CCCC3` (stereo not shown) [Example 9, 9-Chloro-5,6,7,8-tetrahydro-acridine-3-carboxylic acid [3-(2,6-dimethyl-piperidin-1-yl)-propyl]-amide] was run?
Answer: > 200 µM

Question: Which IC50 does the source give for `O=C(NCCCN1CCCC1)c1ccc2c(Cl)c3c(nc2c1)CCCC3` [Example 8, 9-Chloro-5,6,7,8-tetrahydro-acridine-3-carboxylic acid (3-pyrrolidin-1-yl-propyl)-amide] here?
Answer: > 200 µM

Question: Which IC50 does the source give for `CCN(CCCNC(=O)c1ccc2c(Cl)c3c(nc2c1)CCCC3)Cc1ccccc1` [Example 5, 9-Chloro-5,6,7,8-tetrahydro-acridine-3-carboxylic acid [3-(benzyl-ethyl-amino)-propyl]-amide] here?
Answer: > 200 µM
